The values that follow come from patent US11534440B2, “Combination therapy with Axl inhibitor and immune checkpoint modulator or oncolytic virus” (BerGenBio ASA, priority 2015, dated 2022).

“Also recorded” adds a separate entry of the source.

One assay relates to Lewis Lung tumors. Nature of the assay: Subcutaneous Lewis Lung syngeneic tumor model: survival, tumor burden, metastasis. The note with it: Lewis Lung tumor bearing C57Bl/6 mice; BGB324 combined with PD-1/PD-L1 compared to PD-1/PD-L1 alone. It counts as in vivo. The text has this: • Species/Strain: Balb/c ABomTac • Source: Taconic Farms • Sex: Female • Weight: 20-30 grams on the day of implantation • Age: at least 6 weeks old on the day of randomization • Animal Identification: Cage number and ear notching Experimental Animals for Syngeneic Lewis Lung Model: • Species/Strain: C57BL/6JOlaHsd • Source: Harlan Laboratories • Sex: Female • Weight: 20-30 grams on the day of implantation • Age: at least 6 weeks old on the day of randomization • Animal Identification: Cage number and ear notching Cells and Materials: • RPMI-1640 (Sigma, Cat. # R8758) supplemented with 10% fetal bovine serum (FBS), L-glutamine (4 mM), streptomycin (5 μg/ml) and penicillin (5 U/ml). • BD Matrigel™ Basement Membrane Matrix Growth Factor Reduced, BD Bioscience, Cat. #354230, Lot #2229975. • 0.25% Trypsin-EDTA, Sigma, Cat. # SLBD8049. Drugs Vehicle: 0.5% HPMC/0.1% Tween 80 vehicle for BGB324. Sterile PBS for immune checkpoint inhibitors. IgG: InVivoMAb Polyclonal Armenian Hamster IgG, BE0091, BioXCell, Isotype control for IP injections. BGB324: Manufacturer: Almac Group, N Ireland, batch Q1080. BGB324 powder was stored at room temperature. […] BGB324 was diluted in vehicle to 5 mg/ml dosing solution and administered to the mice immediately. BGB324 solution was freshly prepared every day. […]

Assay [1] concerns Cytotoxic T cells (CTLs), Natural Killer cells, macrophages, neutrophils, mMDSCs. Nature of the assay: Immune cell sub-populations in tumors and spleens, 4T1 model. It counts as in vivo, Balb/c mice. The text has this:
• Species/Strain: Balb/c ABomTac • Source: Taconic Farms • Sex: Female • Weight: 20-30 grams on the day of implantation • Age: at least 6 weeks old on the day of randomization • Animal Identification: Cage number and ear notching Experimental Animals for Syngeneic Lewis Lung Model: • Species/Strain: C57BL/6JOlaHsd • Source: Harlan Laboratories • Sex: Female • Weight: 20-30 grams on the day of implantation • Age: at least 6 weeks old on the day of randomization • Animal Identification: Cage number and ear notching Cells and Materials: • RPMI-1640 (Sigma, Cat. # R8758) supplemented with 10% fetal bovine serum (FBS), L-glutamine (4 mM), streptomycin (5 μg/ml) and penicillin (5 U/ml). • BD Matrigel™ Basement Membrane Matrix Growth Factor Reduced, BD Bioscience, Cat. #354230, Lot #2229975. • 0.25% Trypsin-EDTA, Sigma, Cat. # SLBD8049. Drugs Vehicle: 0.5% HPMC/0.1% Tween 80 vehicle for BGB324. Sterile PBS for immune checkpoint inhibitors. IgG: InVivoMAb Polyclonal Armenian Hamster IgG, BE0091, BioXCell, Isotype control for IP injections. BGB324: Manufacturer: Almac Group, N Ireland, batch Q1080. BGB324 powder was stored at room temperature. The BGB324 dosage given was well below the MTD in mice (023-TR-324). […] BGB324 was diluted in vehicle to 5 mg/ml dosing solution and administered to the mice immediately. BGB324 solution was freshly prepared every day. Anti-mCTLA-4 (CD152) monoclonal antibody (CTAA-4): Syrian Hamster IgG, clone 9H10 (BioXCell, Cat. # BE0131). Anti-mPD-1 monoclonal antibody (PD-1): rat IgG2a, clone RMP1-14 (BioXCell, Cat. # BE0146). Anti-mPD-L1 monoclonal antibody (PD-L1): rat IgG2b, clone 10F.9G2 (BioXCell, Cat # BE0101). Methods Cell Culture 4T1 mammary adenocarcinoma cells and Non Small Cell Lung Cancer (NSCLC) Lewis Lung (LL2) were propagated at sub-confluence and split on a regular basis every 3rd day. After trypsinization, the cells were washed once in RPMI/FBS (7 min at 1200 rpm) and re-suspended at 4×10^6 cells/ml (4T1 cells) or 2.5×10^6 per ml (LL2 cells) in a mixture of serum-free RPMI medium and Matrigel (1:1). Subcutaneous Tumor Inoculation Each animal was weighed before cell implantation. Injection of cells was performed after anesthetizing of mice by inhalation of sevoflurane. Anesthesia was induced with 8% sevoflurane and maintained at 4%. During injection, the mouse was placed on a heating pad. For implantation of 4T1 tumors: under a suitable depth of unconsciousness, each mouse was shaved and skin surrounding the region was washed with Chlorhexidine (1 mg/ml) with use of sterile gauze. […] Assignment of Experimental Groups Before commencement of treatment, the animals were weighted and the tumor volume was measured twice a week. […]

Assay [2] concerns Cytotoxic T cells (CTLs), Natural Killer cells (NK), mMDSCs. Nature of the assay: Immune cell sub-populations in tumors, Lewis Lung model. It counts as in vivo, C57Bl/6 mice. The note with it: BGB324 combined with PD-1/PD-L1 compared to PD-1/PD-L1 alone, day 21. The text has this:
• Species/Strain: Balb/c ABomTac • Source: Taconic Farms • Sex: Female • Weight: 20-30 grams on the day of implantation • Age: at least 6 weeks old on the day of randomization • Animal Identification: Cage number and ear notching Experimental Animals for Syngeneic Lewis Lung Model: • Species/Strain: C57BL/6JOlaHsd • Source: Harlan Laboratories • Sex: Female • Weight: 20-30 grams on the day of implantation • Age: at least 6 weeks old on the day of randomization • Animal Identification: Cage number and ear notching Cells and Materials: • RPMI-1640 (Sigma, Cat. # R8758) supplemented with 10% fetal bovine serum (FBS), L-glutamine (4 mM), streptomycin (5 μg/ml) and penicillin (5 U/ml). • BD Matrigel™ Basement Membrane Matrix Growth Factor Reduced, BD Bioscience, Cat. #354230, Lot #2229975. • 0.25% Trypsin-EDTA, Sigma, Cat. # SLBD8049. Drugs Vehicle: 0.5% HPMC/0.1% Tween 80 vehicle for BGB324. Sterile PBS for immune checkpoint inhibitors. IgG: InVivoMAb Polyclonal Armenian Hamster IgG, BE0091, BioXCell, Isotype control for IP injections. BGB324: Manufacturer: Almac Group, N Ireland, batch Q1080. BGB324 powder was stored at room temperature. […] BGB324 was diluted in vehicle to 5 mg/ml dosing solution and administered to the mice immediately. BGB324 solution was freshly prepared every day. Anti-mCTLA-4 (CD152) monoclonal antibody (CTAA-4): Syrian Hamster IgG, clone 9H10 (BioXCell, Cat. # BE0131). […] Anti-mPD-L1 monoclonal antibody (PD-L1): rat IgG2b, clone 10F.9G2 (BioXCell, Cat # BE0101). Methods Cell Culture 4T1 mammary adenocarcinoma cells and Non Small Cell Lung Cancer (NSCLC) Lewis Lung (LL2) were propagated at sub-confluence and split on a regular basis every 3rd day. After trypsinization, the cells were washed once in RPMI/FBS (7 min at 1200 rpm) and re-suspended at 4×10^6 cells/ml (4T1 cells) or 2.5×10^6 per ml (LL2 cells) in a mixture of serum-free RPMI medium and Matrigel (1:1). Subcutaneous Tumor Inoculation Each animal was weighed before cell implantation. Injection of cells was performed after anesthetizing of mice by inhalation of sevoflurane. […]

Setting [3] is: 4T1 model, BGB324 combined with CTLA-4/PD-1 compared to CTLA-4/PD-1 alone, day 11.

`Nc1nc(Nc2ccc3c(c2)CC[C@@H](N2CCCC2)CC3)nn1-c1cc2c(nn1)-c1ccccc1CCC2` [BGB324, 1-(6,7-dihydro-5H-benzo[6,7]cyclohepta[1,2-c]pyridazin-3-yl)-N^3-((7-(S)-pyrrolidin-1-yl)-6,7,8,9-tetrahydro-5H-benzo[7]annulene-2-yl)-1H-1,2,4-triazole-3,5-diamine]: in the assay with Lewis Lung tumors, the “survival (tumor reaching 500 mm^3 as endpoint)” value is on record as “significantly prolonged survival” and the tumor burden result is “reduced tumor burden”. For the same molecule, in assay [1] (4T1 model, 43 days after treatment initiation, compared to immune check point inhibitors alone), the “number of CTLs in the spleen” value is on record as “further enhanced the number of CTLs”. In addition, in assay [1] (setting [3]), the “presence of Natural Killer cells, macrophages and neutrophils in spleens” value is “enhanced presence of NK cells, macrophages and PMN neuotrophiles”; the “presence of pro-tumorigenic mMDSCs in spleens” value is reported as “reduction in the presence of pro-tumorigenic mMDSC”. Also, the “tumor infiltration of Cytotoxic T cells (CTLs)” value in assay [1] (4T1 tumors, BGB324 combined with CTLA-4/PD-1 compared to CTLA-4/PD-1 alone) was “enhanced CTL tumor infiltration; also recorded: further enhanced tumour infiltration of CTLs”. Also, the “presence of pro-tumorigenic mMDSCs” value in assay [2] (Lewis Lung model) is recorded as “reduction in the presence of pro-tumorigenic mMDSC”. Also, in assay [2] (Lewis Lung tumors), the “tumor infiltration / presence of Natural Killer cells (NK)” value was “enhanced presence of NK cells” and the “tumor infiltration of Cytotoxic T cells (CTLs)” value is “enhanced CTL tumor infiltration”.
